Results on one molecule are retold here after article PMC10831786 (Virus Research, 2024).

Where a name gives a salt, the structure may show the parent alone.

For data set [1], the target named is sodium channel. Also on record: method as in Lemmens-Gruber et al., 1997. The settings on record: ref Lemmens-Gruber et al., 1997; read-out: Kd, sodium channel reduction; cited from earlier work.
The nature of data set [2]: MTS assay, growth inhibition and toxicity in non-infected BEC-hACE2 cells. The settings on record: human, sub-confluent non-infected BEC-hACE2 cells; sub-confluent BEC-hACE2, 24 h; read-out: MTS, CC50 (50 % effect). The format is cell-based, human. As for the experimental part: (§1) Detailed methods are provided in Supplementary Information.
(§2) Vero E6 and BEC-hACE2 cells were grown to 70-80% density in their maintenance media and exposed to various concentrations of ipecac alkaloids (0.0125 – 200 µM) under standard culture conditions for 48-72 h and 24 h, respectively. Controls with varying amounts of DMSO and no DMSO were included also. Vero E6 cells were incubated with drugs in 2% FBS-EMEM, while BEC-HACE2 cells were grown and treated in complete PCS-300-03 medium with supplements. Similar treatments were also conducted using fully confluent non-growing BEC-hACE2 cells. At the end of the exposure period, MTS reagent (Promega G3580) was added at 1/5th of the medium volume and color was allowed to develop by incubation of the plates for an hour in a cell culture incubator. To stop reactions, SDS was added to a final concentration of 2% and optical density of samples was measured at 450 or 490 nm, depending on the model of spectrophotometer (PharmaciaBiotech, NJ, USA; UV spectrophotometer, model Ultrospec2000) or plate reader (Molecular Devices, CA, USA; model Filter Max F5 Multi-mode microplate reader) available at the time of experiment.
For orientation: Tetrazolium assays rely on reduction of a dye to a coloured formazan, in cell work by metabolically active cells.

A short description of data set [3]: MTS assay, growth inhibition and toxicity in non-infected Vero E6 cells. The settings on record: African green monkey, non-infected Vero E6 cells, MTS, 72 h; read-out: Fifty percent effect (CC50) in non-infected Vero E6. The format is cell-based, African green monkey. On the procedure: as §1, §2

In the case of `CC[C@H]1CN2CCc3cc(OC)c(OC)cc3[C@@H]2C[C@@H]1C[C@H]1NCCc2cc(OC)c(OC)cc21` [Emetine, 2H-Benzoaquinolizine, 3-ethyl-1,3,4,6,7,11b-hexahydro-9,10-dimethoxy-2-(1R)-1,2,3,4-tetrahydro-6,7-dimethoxy-1-isoquinolinylmethyl-, dihydrochloride, (2S,3R,11bS)-, reference compound], the Kd in data set [1] was 15 µM. The CC50 at 24 h in data set [2] was 100 µM. Moreover, in data set [3], the CC50 at 72 h was 1.52 µM.

By Kd is commonly meant the equilibrium constant for the complex coming apart. Usually CC50 stands for the concentration that lowers cell viability or growth by half.
